Experiment [1] deals with Mycobacterium tuberculosis Rv0183 (monoglyceride lipase) (Mycobacterium tuberculosis, UniProt O07427). Type of experiment: biochemical.
Experiment [2] concerns the target Mycobacterium tuberculosis LipY (triacylglycerol lipase) (Mycobacterium tuberculosis, UniProt I6Y2J4). Format: biochemical.
For a further experiment, the target named is Fusarium solani Cutinase (Fusarium vanettenii, UniProt P00590). Type of experiment: biochemical, Fusarium solani pisi.
In the next experiment the target is T1, LipY (Mycobacterium tuberculosis, UniProt I6Y2J4).
T1 sequence (I6Y2J4 1-437): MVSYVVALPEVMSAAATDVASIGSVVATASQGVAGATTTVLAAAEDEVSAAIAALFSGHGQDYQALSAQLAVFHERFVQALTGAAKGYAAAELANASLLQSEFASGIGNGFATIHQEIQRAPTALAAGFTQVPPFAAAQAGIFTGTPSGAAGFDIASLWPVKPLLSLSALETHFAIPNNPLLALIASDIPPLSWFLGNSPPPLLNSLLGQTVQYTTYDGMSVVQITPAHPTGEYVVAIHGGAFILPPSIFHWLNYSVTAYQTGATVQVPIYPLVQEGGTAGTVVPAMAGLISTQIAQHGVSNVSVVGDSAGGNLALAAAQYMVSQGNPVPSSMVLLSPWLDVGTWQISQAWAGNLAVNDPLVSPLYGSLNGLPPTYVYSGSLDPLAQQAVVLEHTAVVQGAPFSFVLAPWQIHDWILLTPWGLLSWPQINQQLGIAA
Format: binding.

We go through twelve molecules from article PMC3518039 (Journal of medicinal chemistry, 2012).

Each structure is given as a SMILES string. Bounds are passed on as bounds.

Chain of Mycobacterium tuberculosis Rv0183 (monoglyceride lipase) (O07427 whole entry, looked up): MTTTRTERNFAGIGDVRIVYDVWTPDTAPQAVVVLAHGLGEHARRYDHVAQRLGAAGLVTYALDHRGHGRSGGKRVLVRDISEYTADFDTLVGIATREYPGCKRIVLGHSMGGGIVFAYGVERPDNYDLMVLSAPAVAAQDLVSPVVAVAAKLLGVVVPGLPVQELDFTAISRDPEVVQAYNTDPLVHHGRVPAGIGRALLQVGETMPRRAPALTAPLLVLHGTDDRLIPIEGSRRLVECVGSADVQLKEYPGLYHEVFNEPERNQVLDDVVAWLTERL
Chain of Fusarium solani Cutinase (P00590 17-230): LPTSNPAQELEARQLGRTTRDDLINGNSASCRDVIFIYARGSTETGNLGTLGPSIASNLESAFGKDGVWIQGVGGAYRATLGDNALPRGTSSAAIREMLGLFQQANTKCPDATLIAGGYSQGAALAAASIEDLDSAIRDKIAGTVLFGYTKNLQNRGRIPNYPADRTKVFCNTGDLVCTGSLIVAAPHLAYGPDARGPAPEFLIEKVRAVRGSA

In the case of `CCCCCCCCCCCCCCCCC1CCP(=O)(OC)OC(C)=C1C(=O)OC` (racemic) [9(α), (±) Methyl 5-hexadecyl-2-methoxy-7-methyl-2,3,4,5-tetrahydro-1,2-oxaphosphepine - 6-carboxylate 2-oxide], the “DI (Diastereoselectivity Index between trans-(α) and cis-(β) isomers), Rv0183” value in experiment [1] is recorded as more than 97.0%. In addition, the “DI (Diastereoselectivity Index between trans-(α) and cis-(β) isomers), LipY” value in experiment [2] was 70.5%. In addition, the “DI (Diastereoselectivity Index between trans-(α) and cis-(β) isomers), Cutinase” value at Fusarium solani Cutinase is 27.2%.
The like results for `CCCCCCCCCCCCCCCCC1CCP(=O)(OC)OC(C)=C1C(=O)OC` (racemic) [9(β), (±) Methyl 5-hexadecyl-2-methoxy-7-methyl-2,3,4,5-tetrahydro-1,2-oxaphosphepine - 6-carboxylate 2-oxide] were, in that order, more than 97.0%, 70.5% and 27.2%.
The like results for `CCCCCCCCCCC1CCP(=O)(OC)OC(C)=C1C(=O)OC` (racemic) [7(α), (±) Methyl 5-decyl-2-methoxy-7-methyl-2,3,4,5-tetrahydro-1,2-oxaphosphepine-6-carboxylate 2-oxide] were, in that order, 51.9%, 80.3% and 76.2%.
The like results for `CCCCCCCCCCCCCCCCCCC1CCP(=O)(OC)OC(C)=C1C(=O)OC` (racemic) [10(β), (±) Methyl 2-methoxy-7-methyl-5-octadecyl-2,3,4,5-tetrahydro-1,2-oxaphosphepine-6-carboxylate 2-oxide] were, in that order, more than 93.0%, 81.3% and 72.1%.
For `CCCCCCCCCCCCC1CCP(=O)(OC)OC(C)=C1C(=O)OC` (racemic) [8(α), (±) Methyl 5-dodecyl-2-methoxy-7-methyl-2,3,4,5-tetrahydro-1,2-oxaphosphepine-6-carboxylate 2-oxide], the “DI (Diastereoselectivity Index between trans-(α) and cis-(β) isomers), Rv0183” value in experiment [1] is on record as 36.3%. Further, the “DI (Diastereoselectivity Index between trans-(α) and cis-(β) isomers), LipY” value in experiment [2] is listed as 28.0%. Also, the “DI (Diastereoselectivity Index between trans-(α) and cis-(β) isomers), Cutinase” value on Fusarium solani Cutinase amounted to 29.0%.
Take `CCCCCCCCCCCCCCCCOP1(=O)CCCC(C(=O)OC)=C(C)O1` (stereo not shown) [Compound 11, Methyl 7-methyl-2-(hexadecyloxy)-2,3,4,5-tetrahydro-1,2-oxaphosphepine-6-carboxylate 2-oxide]: in experiment [2], the “half-inactivation time (t1/2), LipY” value was 9.6 s. Moreover, on LipY, the “Mass modifications (inhibited minus native lipase), LipY” value is “+443.8 Da”.
Regarding `CCCCCC1CCP(=O)(OC)OC(C)=C1C(=O)OC` (racemic) [6(β), (±) Methyl 2-methoxy-7-methyl-5-pentyl-2,3,4,5-tetrahydro-1,2-oxaphosphepine-6-carboxylate 2-oxide], the “DI (Diastereoselectivity Index between trans-(α) and cis-(β) isomers), Rv0183” value in experiment [1] was 16.7%. In experiment [2], the “xI50 (inhibitor molar excess leading to 50% lipase inhibition), LipY” value is on record as more than 100. In addition, at Fusarium solani Cutinase, the “DI (Diastereoselectivity Index between trans-(α) and cis-(β) isomers), Cutinase” value is listed as 89.7%.
Turning to `CO[P@]1(=O)OC[C@H]2COC(=O)C2=C(C)O1` [Compound 1, Cyclophostin], the “xI50 (inhibitor molar excess leading to 50% lipase inhibition), LipY” value in experiment [2] is on record as more than 100. Besides, on Fusarium solani Cutinase, the “half-inactivation time (t1/2), Cutinase” value came to 10.8 s and the “residual lipase activity (plateau), Cutinase” value is reported as “around 6.0%”.
`CCCCCCCCCCCCCCCCCCC1CCP(=O)(OC)OC(C)=C1C(=O)OC` (racemic) [10(α), (±) Methyl 2-methoxy-7-methyl-5-octadecyl-2,3,4,5-tetrahydro-1,2-oxaphosphepine-6-carboxylate 2-oxide]: in experiment [1], the “DI (Diastereoselectivity Index between trans-(α) and cis-(β) isomers), Rv0183” value is on record as more than 93.0%. In addition, the “DI (Diastereoselectivity Index between trans-(α) and cis-(β) isomers), LipY” value in experiment [2] is on record as 81.3%. Moreover, the “DI (Diastereoselectivity Index between trans-(α) and cis-(β) isomers), Cutinase” value at Fusarium solani Cutinase was determined as 72.1%.
On to `CCCCCCCCCCC1CCP(=O)(OC)OC(C)=C1C(=O)OC` (racemic) [Compound 7(β), (±) Methyl 5-decyl-2-methoxy-7-methyl-2,3,4,5-tetrahydro-1,2-oxaphosphepine-6-carboxylate 2-oxide], for which, in experiment [1], the “DI (Diastereoselectivity Index between trans-(α) and cis-(β) isomers), Rv0183” value was found to be 51.9%; the “half-inactivation time (t1/2), Rv0183” value was 86.4 s; the “residual lipase activity (plateau), Rv0183” value was “around 6.0%”. Further, the “DI (Diastereoselectivity Index between trans-(α) and cis-(β) isomers), LipY” value in experiment [2] amounted to 80.3%. Moreover, on Fusarium solani Cutinase, the “DI (Diastereoselectivity Index between trans-(α) and cis-(β) isomers), Cutinase” value was 76.2%.
As for `CCCCCC1CCP(=O)(OC)OC(C)=C1C(=O)OC` (racemic) [6(α), (±) Methyl 2-methoxy-7-methyl-5-pentyl-2,3,4,5-tetrahydro-1,2-oxaphosphepine-6-carboxylate 2-oxide], the “DI (Diastereoselectivity Index between trans-(α) and cis-(β) isomers), Rv0183” value in experiment [1] was found to be 16.7%. Also, the “xI50 (inhibitor molar excess leading to 50% lipase inhibition), LipY” value in experiment [2] is reported as more than 100. For the same molecule, the “DI (Diastereoselectivity Index between trans-(α) and cis-(β) isomers), Cutinase” value at Fusarium solani Cutinase stood at 89.7%.
As to `CCCCCCCCCCCCC1CCP(=O)(OC)OC(C)=C1C(=O)OC` (racemic) [8(β), (±) Methyl 5-dodecyl-2-methoxy-7-methyl-2,3,4,5-tetrahydro-1,2-oxaphosphepine-6-carboxylate 2-oxide], the “DI (Diastereoselectivity Index between trans-(α) and cis-(β) isomers), Rv0183” value in experiment [1] came to 36.3%. Also, in experiment [2], the “DI (Diastereoselectivity Index between trans-(α) and cis-(β) isomers), LipY” value worked out at 28.0%. Besides, at Fusarium solani Cutinase, the “DI (Diastereoselectivity Index between trans-(α) and cis-(β) isomers), Cutinase” value was found to be 29.0%.
